Measured values: patent US9364459B2, “3-(indolyl)- or 3-(azaindolyl)- 4-arylmaleimide derivatives for use in the treatment of colon and gastric adenocarcinoma” (Johannes Gutenberg-Universität Mainz, priority 2009, dated 2016)

How the values were obtained:
FLT-3 = FLT-3 (Homo sapiens (Human), UniProt P36888); experiment: FLT-3 kinase inhibition assay (Millipore IC50Profiler); format: biochemical
Method: (§1) GSK-3β, VEGFR-2, FLT-3 Kinase Inhibition Assays
The effect of test compounds on the activity of the protein kinases GSK-3β, VEGFR-2 and FLT-3 was evaluated based on half maximal inhibitory concentration (IC50) values determined by Millipore UK Ltd; Gemini Crescent; Dundee Technology Park; Dundee DD2 1SW; UK (IC50Profiler). Detailed protocols can be found at: www.millipore.com/drugdiscovery/dd3/assayprotocols.

MKN-45 = experiment: Nicoletti apoptosis assay in MKN-45 cells; format: cell-based, human
Method: (§2) Nicoletti Apoptosis Assay by Cell Cycle Analysis
(§3) Cancer cells were transferred to 12-well flat-bottomed plates. […] Subsequently, cells were incubated in 1 ml medium containing various concentrations of test compounds at 37° C. with 5% CO2. After incubation the cells were washed with PBS, trypsinized, pelleted and mixed with PI buffer (containing 0.1% sodium citrate, 0.1% triton X-100, […] propidium iodide (PI)) and incubated for 1 hour at 4° C. Cell cycle sub-G1 fraction analysis was performed as described previously (Nicoletti, I. et al. (1991) J. Immunol. Methods 139, 271-279) using a flow cytometer (BD FACS Calibur™, BD Biosciences, Heidelberg, Germany). Each experiment was done in triplicate.

[1] = test system: chick embryo microvessel formation; experiment: Quantitative chick embryo in vivo assay of antiangiogenic activity; conditions: Gallus gallus; 26 nM drug concentration/pellet; 24 hours incubation; read-out: Inhibition of microvessel area
Method: Evaluation of Antiangiogenic Activity in a Quantitative Chick Embryo In Vivo Assay
The inhibition of angiogenesis (new blood vessel formation) was measured as described in WO2006/061212.

HUVEC = experiment: Nicoletti apoptosis assay (sub-G1 fraction) in HUVEC; format: cell-based, human; conditions: 4 days, untreated 15.4 ± 1.5%
Method: as §2, §3
The same analysis was performed with HUVEC cells. 1.5×10^4 cells were plated into each well and treated with test compounds for 4 days.
Human Umbilical Vein Endothelial Cells (HUVEC) known for mitogenic specifity for VEGF were obtained from the Department of Pathology, University Hospital of Mainz, Germany. The cells were cultured in M199 supplemented with 20% FCS, 1% Pen/Strep, 0.34% GlutaMAX-I, 25 μg/ml Endothelial Cell Growth Supplement (BD Biosciences), 25 μg/ml Heparin sodium (179 USP units/mg; Sigma, Germany) and were maintained at 37° C. and 5% CO2.

HT-29 = experiment: Nicoletti apoptosis assay in HT-29 cells; format: cell-based, human; conditions: HT-29
Method: as §2, §3

VEGFR-2 = VEGFR-2 (Homo sapiens (Human), UniProt P35968); experiment: VEGFR-2 kinase inhibition assay (Millipore IC50Profiler); format: biochemical
Chain of VEGFR-2 (P35968 20-1356): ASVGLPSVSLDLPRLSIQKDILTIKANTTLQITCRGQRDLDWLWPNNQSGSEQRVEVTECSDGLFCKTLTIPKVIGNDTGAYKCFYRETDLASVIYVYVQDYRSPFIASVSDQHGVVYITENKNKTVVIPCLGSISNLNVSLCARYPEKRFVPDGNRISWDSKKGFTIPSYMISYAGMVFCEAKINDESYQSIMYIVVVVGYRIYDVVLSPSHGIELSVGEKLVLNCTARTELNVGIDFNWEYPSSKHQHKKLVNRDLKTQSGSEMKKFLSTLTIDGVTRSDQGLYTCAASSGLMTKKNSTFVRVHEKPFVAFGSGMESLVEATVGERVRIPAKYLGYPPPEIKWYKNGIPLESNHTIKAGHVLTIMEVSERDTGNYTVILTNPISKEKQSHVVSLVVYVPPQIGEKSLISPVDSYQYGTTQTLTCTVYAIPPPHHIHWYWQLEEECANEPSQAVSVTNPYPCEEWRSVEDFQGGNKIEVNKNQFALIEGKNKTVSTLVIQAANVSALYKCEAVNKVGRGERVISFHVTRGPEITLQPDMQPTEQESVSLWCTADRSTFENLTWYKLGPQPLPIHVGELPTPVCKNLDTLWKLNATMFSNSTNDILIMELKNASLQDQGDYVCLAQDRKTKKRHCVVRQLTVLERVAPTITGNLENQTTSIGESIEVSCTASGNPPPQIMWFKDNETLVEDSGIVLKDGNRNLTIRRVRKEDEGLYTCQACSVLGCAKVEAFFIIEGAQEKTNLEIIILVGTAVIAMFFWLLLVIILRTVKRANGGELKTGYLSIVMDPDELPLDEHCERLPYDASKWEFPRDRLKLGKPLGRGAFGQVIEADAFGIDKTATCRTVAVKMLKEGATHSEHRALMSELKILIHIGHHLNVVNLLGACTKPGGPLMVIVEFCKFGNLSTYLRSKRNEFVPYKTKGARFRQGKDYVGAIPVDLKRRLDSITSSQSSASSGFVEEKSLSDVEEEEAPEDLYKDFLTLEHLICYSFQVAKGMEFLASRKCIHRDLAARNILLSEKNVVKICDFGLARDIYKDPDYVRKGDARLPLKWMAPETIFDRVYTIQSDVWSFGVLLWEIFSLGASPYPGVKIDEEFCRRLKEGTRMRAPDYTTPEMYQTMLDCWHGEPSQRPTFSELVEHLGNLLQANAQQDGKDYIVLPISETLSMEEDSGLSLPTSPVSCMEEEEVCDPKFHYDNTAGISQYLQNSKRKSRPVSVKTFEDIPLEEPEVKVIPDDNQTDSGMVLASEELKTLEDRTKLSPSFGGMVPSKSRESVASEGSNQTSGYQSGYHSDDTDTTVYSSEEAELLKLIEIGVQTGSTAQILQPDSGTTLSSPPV
Text: as §1
(§4) Detailed protocols can be found at: www.millipore.com/drugdiscovery/dd3/assayprotocols.

HCT-116 = experiment: Nicoletti apoptosis assay in HCT-116 cells; format: cell-based, human
Method: as §2, §3

GSK-3β = GSK-3β (Homo sapiens (Human), UniProt P49841); experiment: GSK-3β kinase inhibition assay (Millipore IC50Profiler); format: biochemical
Chain of GSK-3β (P49841 whole entry): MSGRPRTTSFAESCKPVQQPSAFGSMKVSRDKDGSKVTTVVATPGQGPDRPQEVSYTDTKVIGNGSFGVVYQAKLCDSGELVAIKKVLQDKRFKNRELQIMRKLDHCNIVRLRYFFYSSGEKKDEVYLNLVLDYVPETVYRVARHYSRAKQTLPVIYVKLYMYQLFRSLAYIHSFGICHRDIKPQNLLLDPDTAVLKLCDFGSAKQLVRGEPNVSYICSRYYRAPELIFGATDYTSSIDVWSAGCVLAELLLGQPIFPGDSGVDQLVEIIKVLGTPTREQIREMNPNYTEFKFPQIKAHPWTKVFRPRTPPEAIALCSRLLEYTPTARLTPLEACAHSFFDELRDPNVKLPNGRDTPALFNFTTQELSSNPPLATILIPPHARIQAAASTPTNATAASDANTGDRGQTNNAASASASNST
Text: as §1, §4

Caco-2 = experiment: Nicoletti apoptosis assay in Caco-2 cells; format: cell-based, human
Method: as §2, §3

SW480 = experiment: Nicoletti apoptosis assay in SW480 cells; format: cell-based, human
Method: as §2, §3

[2] = test system: HT-29 human colon adenocarcinoma cells; experiment: MTT viability assay in HT-29 cells; conditions: HT-29, 72 h, read-out: Viability of HT-29 cells as determined by MTT assay
Method: Evaluation of Effect on Viability (MTT Assay)
The antiproliferative activity of test compounds was determined by the 3-(4,5-dimethylthiazol-2-yl)-2,5-diphenyltetrazolium bromide (MTT) assay as described previously (Mosmann, T. et al. (1983) J. Immunol. Methods 65, 55-63). Cells in the exponential growth phase were transferred to 96-well flat-bottom plates. 10,000 viable cells contained in 200 μl cell suspension were plated into each well and incubated over night. Cells were then exposed to various concentrations of test compounds (100 μl/well) for 3 days at 37° C. with 5% CO2. Subsequently, 10 μl/well MTT stock solution (5 mg/ml; Biomol, Germany) was added and the cells were incubated at 37° C. with 5% CO2 for 4 hours. 100 μl solubilization solution (10% SDS in 0.01 M HCl) was added and the cells were incubated at 37° C. with 5% CO2 over night. Plates were read on an ELISA-Reader ELX 800 (BIO-TEK Software KC 4) at 562 nm absorbance. Each experiment was done in triplicate.
HCT-116, HT-29 and SW480 cells were cultured in RPMI1640 supplemented with 10% FCS. […] All cells were maintained at 37° C. and 5% CO2.

[3] = Table 6, 7.9 μM comp. A plus 1.18 μM irinotecan
[4] = Table 6, 7.9 μM compound A alone
[5] = Table 7, 7.9 μM compound A alone
[6] = Table 7, 7.9 μM compound A plus 20 nM topotecan

Chain of FLT-3 (P36888 27-993): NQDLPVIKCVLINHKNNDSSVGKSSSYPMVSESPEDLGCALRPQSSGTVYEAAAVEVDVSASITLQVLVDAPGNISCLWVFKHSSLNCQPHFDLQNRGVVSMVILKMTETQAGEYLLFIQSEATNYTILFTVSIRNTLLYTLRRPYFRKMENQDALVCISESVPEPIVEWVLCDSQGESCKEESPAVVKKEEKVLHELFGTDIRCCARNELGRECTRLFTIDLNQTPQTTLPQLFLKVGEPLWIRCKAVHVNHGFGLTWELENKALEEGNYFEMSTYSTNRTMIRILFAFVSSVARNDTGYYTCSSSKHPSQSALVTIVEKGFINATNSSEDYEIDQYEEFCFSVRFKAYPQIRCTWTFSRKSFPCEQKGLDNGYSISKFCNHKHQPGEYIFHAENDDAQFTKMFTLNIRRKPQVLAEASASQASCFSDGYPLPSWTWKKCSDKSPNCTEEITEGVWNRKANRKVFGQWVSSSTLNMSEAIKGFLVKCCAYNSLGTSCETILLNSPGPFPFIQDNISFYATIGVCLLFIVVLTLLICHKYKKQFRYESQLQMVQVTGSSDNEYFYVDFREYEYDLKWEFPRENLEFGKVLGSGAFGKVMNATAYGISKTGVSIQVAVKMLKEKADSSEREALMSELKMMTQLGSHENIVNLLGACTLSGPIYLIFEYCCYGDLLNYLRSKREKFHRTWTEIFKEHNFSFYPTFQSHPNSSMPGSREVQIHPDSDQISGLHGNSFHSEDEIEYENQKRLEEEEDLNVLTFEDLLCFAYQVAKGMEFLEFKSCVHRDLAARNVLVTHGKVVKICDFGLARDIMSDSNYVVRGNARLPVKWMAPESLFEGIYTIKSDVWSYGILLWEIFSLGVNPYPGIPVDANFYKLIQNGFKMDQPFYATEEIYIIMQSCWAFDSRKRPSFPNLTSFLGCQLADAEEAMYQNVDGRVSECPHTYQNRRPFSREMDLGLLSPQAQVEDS

In the case of `COc1cc(C2=C(c3c[nH]c4ccccc34)C(=O)NC2=O)cc(OC)c1OC` [A, 3-(1H-indol-3-yl)-4-(3,4,5-trimethoxyphenyl)-maleinimid], the IC50 (FLT-3) is reported as 166 nM, the “FLT-3 inhibition, in words” value (FLT-3; Table 2) is reported as “most significantly inhibited” and the “Sub-G1 Fraction” value (MKN-45; [3]) is reported as 51.44 ± 0.2%. The “Sub-G1 Fraction” value (MKN-45; [4]) was 20.16 ± 1.6%, the “Sub-G1 Fraction” value (MKN-45; [5]) was 20.2 ± 1.6% and the “Sub-G1 Fraction” value (MKN-45; [6]) was 61.1 ± 1.2%. For the same compound, the inhibition at 0.026 µM [1] was 82%, the “Sub-G1 Fraction” value (HUVEC; 0.79 μM) was 25. ± 0.9% and the “Sub-G1 Fraction” value (HUVEC; 2.6 μM) was 87.7 ± 2.3%. The “Sub-G1 Fraction” value (HUVEC; 7.9 μM) was 88.9 ± 4.0%, the “Combined effect of compound A and low dosed irinotecan on apoptosis, in words” value (HT-29) was “Significant synergistic effects” and the “Combined effect of compound A and topotecan on apoptosis, in words” value (HT-29) was “synergistically inhibited apoptosis”. For the same compound, the “Induction of apoptosis in combination with irinotecan compared with vandetanib or sunitinib, in words” value (HT-29; 7 days combination treatment with irinotecan) was “greater induction of apoptosis”, the “Sub-G1 Fraction” value (HT-29; [3]) was 57.40 ± 1.6% and the “Sub-G1 Fraction” value (HT-29; [4]) was 5.90 ± 0.6%. The “Sub-G1 Fraction” value (HT-29; [5]) was 5.9 ± 0.6%, the “Sub-G1 Fraction” value (HT-29; [6]) was 65.6 ± 1.8% and the “Sub-G1 Fraction” value (HT-29; Table 8, 7.9 μM test compound alone, drug-free control 3.4 ± 0.9%) was 4.70 ± 0.50%. The “Sub-G1 Fraction” value (HT-29; Table 8, 7.9 μM test compound plus 1.18 μM irinotecan) was 53.10 ± 3.30%, the “Sub-G1 Fraction” value (HT-29; Table 9, 7.9 μM compound A plus 1.18 μM Irinotecan, 7 days) was 49.8 ± 1.30% and the “Sub-G1 Fraction” value (HT-29; Table 9, single-agent treatment, 7.9 μM compound A, 7 days) was 8.9 ± 0.8%. The IC50 (VEGFR-2) was 90 nM, the “VEGFR-2 IC50 values, in words” value (VEGFR-2; Table 2) was “low nanomolar range” and the “Combined effect of compound A and low dosed irinotecan on apoptosis, in words” value (HCT-116) was “Significant synergistic effects”. For the same compound, the “Sub-G1 Fraction” value (HCT-116; [3]) was 27.90 ± 3.4%, the “Sub-G1 Fraction” value (HCT-116; [4]) was 3.70 ± 2.8% and the IC50 (GSK-3β) was 1100 nM. The “Combined effect of compound A and low dosed irinotecan on apoptosis, in words” value (Caco-2) was “Significant synergistic effects”, the “Sub-G1 Fraction” value (Caco-2; [3]) was 43.70 ± 2.2% and the “Sub-G1 Fraction” value (Caco-2; [4]) was 6.00 ± 2.3%. For the same compound, the “Sub-G1 Fraction” value (Caco-2; [5]) was 5.9 ± 0.6%, the “Sub-G1 Fraction” value (Caco-2; [6]) was 52.07 ± 2.84% and the “Combined effect of compound A and low dosed irinotecan on apoptosis, in words” value (SW480) was “Significant synergistic effects”. The “Sub-G1 Fraction” value (SW480; [3]) was 32.21 ± 0.40%, the “Sub-G1 Fraction” value (SW480; [4]) was 9.96 ± 2.3% and the “Sub-G1 Fraction” value (SW480; [5]) was 10 ± 2.3%. The “Sub-G1 Fraction” value (SW480; [6]) was 38.81 ± 0.88%, the viability at 2.6 µM [2] was 78.5 ± 3.7% and the viability at 7.9 µM [2] was 62.9 ± 1.5%. The viability at 26 µM [2] was 53.9 ± 4.8% and the viability at 52 µM [2] was 42.8 ± 1.6%.
